Experimental data taken from PubChem BioAssay (NCI).
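48-hour exposure; five concentrations; linearly interpolated endpoints. The concentration for 50% growth inhibition is given as GI50. TGI: concentration producing complete growth inhibition.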

Tests used:
Experiment in all cases: DTP human tumour cell line panel, 48 h
[1] = system: SF-295 CNS
[2] = system: MDA-MB-231 breast
[3] = system: NCI-H522 lung
[4] = system: UACC-257 melanoma
[5] = system: CCRF-CEM leukemia
[6] = system: UACC-62 melanoma
[7] = system: MOLT-4 leukemia
[8] = system: SK-MEL-5 melanoma
[9] = system: SK-MEL-28 melanoma
[10] = system: HOP-92 NSCLC
[11] = system: CAKI-1 renal
[12] = system: DU-145 prostate
[13] = system: HT29 colon
[14] = system: U251 CNS
[15] = system: NCI-H23 lung
[16] = system: SK-OV-3 ovarian
[17] = system: BT-549 breast
[18] = system: PC-3 prostate
[19] = system: RPMI-8226 leukemia
[20] = system: LOX IMVI melanoma
[21] = system: SK-MEL-2 melanoma
[22] = system: HOP-62 NSCLC
[23] = system: A498 renal
[24] = system: OVCAR-5 ovarian
[25] = system: COLO 205 colon
[26] = system: HCT-116 colon
[27] = system: NCI-H460 lung
[28] = system: RXF 393 renal
[29] = system: 786-0 renal
[30] = system: SN12C renal
[31] = system: KM12 colon
[32] = system: MCF7 breast
[33] = system: OVCAR-3 ovarian
[34] = system: SNB-75 CNS
[35] = system: MDA-MB-435
[36] = system: HS 578T breast
[37] = system: UO-31 renal
[38] = system: M14 melanoma
[39] = system: OVCAR-8 ovarian
[40] = system: SNB-19 CNS
[41] = system: SF-268 CNS
[42] = system: HL-60(TB) leukemia
[43] = system: IGROV1 ovarian
[44] = system: NCI/ADR-RES ovarian
[45] = system: OVCAR-4 ovarian
[46] = system: HCT-15 colon
[47] = system: SR leukemia
[48] = system: NCI-H226 lung
[49] = system: K-562 leukemia
[50] = system: HCC-2998 colon
[51] = system: SF-539 CNS
[52] = system: A549 NSCLC
[53] = system: MALME-3M melanoma
[54] = system: TK-10 renal
[55] = system: SW-620 colon
[56] = system: T-47D breast
[57] = system: EKVX NSCLC
[58] = system: ACHN renal

COc1cc2nc3cc([N+](=O)[O-])ccc3c(NCCCNCC(C)(C)O)c2cc1OC
GI50 [1]: 0.501 µM
TGI [1]: 2.43 µM
GI50 [2]: 0.222 µM
TGI [2]: 0.9 µM
GI50 [3]: 0.181 µM
TGI [3]: 0.425 µM
GI50 [4]: 1.62 µM
TGI [4]: 3.1 µM
GI50 [5]: 0.502 µM
TGI [5]: 3.98 µM
GI50 [6]: 0.214 µM
TGI [6]: 0.58 µM
GI50 [7]: 0.372 µM
TGI [7]: 6.67 µM
GI50 [8]: 0.52 µM
TGI [8]: 1.76 µM
GI50 [9]: 0.839 µM
TGI [9]: 2.5 µM
GI50 [10]: 0.225 µM
TGI [10]: 0.726 µM
GI50 [11]: 1.95 µM
TGI [11]: 10.2 µM
GI50 [12]: 0.324 µM
TGI [12]: 1.11 µM
GI50 [13]: 0.212 µM
TGI [13]: 0.586 µM
GI50 [14]: 0.303 µM
TGI [14]: 1.01 µM
GI50 [15]: 0.196 µM
TGI [15]: 0.543 µM
GI50 [16]: 0.506 µM
TGI [16]: 2.59 µM
GI50 [17]: 1.75 µM
TGI [17]: 3.32 µM
GI50 [18]: 0.322 µM
TGI [18]: 1.11 µM
GI50 [19]: 0.565 µM
TGI [19]: 4.01 µM
GI50 [20]: 0.208 µM
TGI [20]: 0.485 µM
GI50 [21]: 0.234 µM
TGI [21]: 0.518 µM
GI50 [22]: 0.169 µM
TGI [22]: 0.708 µM
GI50 [23]: 0.216 µM
TGI [23]: 1.33 µM
GI50 [24]: 0.465 µM
TGI [24]: 3.39 µM
GI50 [25]: 0.176 µM
TGI [25]: 0.442 µM
GI50 [26]: 0.299 µM
TGI [26]: 1.04 µM
GI50 [27]: 0.299 µM
TGI [27]: 1.04 µM
GI50 [28]: 0.297 µM
TGI [28]: 1.24 µM
GI50 [29]: 0.277 µM
TGI [29]: 1.22 µM
GI50 [30]: 0.232 µM
TGI [30]: 1.11 µM
GI50 [31]: 0.41 µM
TGI [31]: 1.6 µM
GI50 [32]: 0.208 µM
TGI [32]: 1.16 µM
GI50 [33]: 0.33 µM
TGI [33]: 1.03 µM
GI50 [34]: 0.3 µM
TGI [34]: 1.61 µM
GI50 [35]: 0.4 µM
TGI [35]: 1.55 µM
GI50 [36]: 0.511 µM
TGI [36]: 5.39 µM
GI50 [37]: 1.46 µM
TGI [37]: 5.14 µM
GI50 [38]: 0.352 µM
TGI [38]: 1.5 µM
GI50 [39]: 0.304 µM
TGI [39]: 1.82 µM
GI50 [40]: 0.303 µM
TGI [40]: 1.41 µM
GI50 [41]: 0.308 µM
TGI [41]: 1.26 µM
GI50 [42]: 0.694 µM
TGI [42]: 2.95 µM
GI50 [43]: 0.35 µM
TGI [43]: 1.3 µM
GI50 [44]: 10.5 µM
TGI [44]: 25.3 µM
GI50 [45]: 0.198 µM
TGI [45]: 0.777 µM
GI50 [46]: 1.3 µM
TGI [46]: 8.29 µM
GI50 [47]: 0.321 µM
TGI [47]: 3.06 µM
GI50 [48]: 0.771 µM
TGI [48]: 2.89 µM
GI50 [49]: 0.299 µM
TGI [49]: 1.68 µM
GI50 [50]: 0.233 µM
TGI [50]: 0.62 µM
GI50 [51]: 0.505 µM
TGI [51]: 2.58 µM
GI50 [52]: 0.32 µM
TGI [52]: 1.17 µM
GI50 [53]: 0.315 µM
TGI [53]: 0.872 µM
GI50 [54]: 0.5 µM
TGI [54]: 2.49 µM
GI50 [55]: 0.301 µM
TGI [55]: 1.51 µM
GI50 [56]: 0.237 µM
TGI [56]: 0.756 µM
GI50 [57]: 1.21 µM
TGI [57]: 3.97 µM
GI50 [58]: 0.576 µM
TGI [58]: 6.07 µM

CCCCCCCCCCCCOC1C(CNC(=O)C2OC3OC(C)(C)OC3C2NC(=O)CN2CCCCCC2)OC2OC(C)(C)OC21 (configuration not stated)
GI50 [1]: 6.75 µM
TGI [1]: 20.4 µM
GI50 [2]: 9.7 µM
TGI [2]: 23 µM
GI50 [3]: 5.07 µM
TGI [3]: 17.8 µM
GI50 [4]: 3.14 µM
TGI [4]: 8.75 µM
GI50 [5]: 4.58 µM
TGI [5]: 15.9 µM
GI50 [6]: 1.83 µM
TGI [6]: 3.48 µM
GI50 [7]: 3.12 µM
TGI [7]: 9.85 µM
GI50 [8]: 1.85 µM
TGI [8]: 3.41 µM
GI50 [9]: 1.72 µM
TGI [9]: 3.4 µM
GI50 [10]: 9.4 µM
TGI [10]: 22.8 µM
GI50 [11]: 13 µM
TGI [11]: 26.8 µM
GI50 [12]: 8.23 µM
TGI [12]: 20.5 µM
GI50 [13]: 1.87 µM
TGI [13]: 3.74 µM
GI50 [14]: 4.91 µM
TGI [14]: 15.9 µM
GI50 [15]: 10.9 µM
TGI [15]: 24.8 µM
GI50 [16]: 16.2 µM
TGI [16]: 30.8 µM
GI50 [17]: 9.06 µM
TGI [17]: 22.1 µM
GI50 [18]: 4.57 µM
TGI [18]: 15.8 µM
GI50 [19]: 3.28 µM
TGI [19]: 12.5 µM
GI50 [20]: 3.17 µM
TGI [20]: 9.25 µM
GI50 [21]: 5.69 µM
TGI [21]: 12 µM
GI50 [22]: 6.48 µM
TGI [22]: 18.1 µM
GI50 [23]: 13 µM
TGI [23]: 26.3 µM
GI50 [24]: 6.44 µM
TGI [24]: 19.5 µM
GI50 [25]: 2.49 µM
TGI [25]: 6.76 µM
GI50 [26]: 4.06 µM
TGI [26]: 12.8 µM
GI50 [27]: 5.19 µM
TGI [27]: 18.4 µM
GI50 [28]: 2.87 µM
TGI [28]: 8.6 µM
GI50 [29]: 10.4 µM
TGI [29]: 23.4 µM
GI50 [30]: 9.64 µM
TGI [30]: 24.6 µM
GI50 [31]: 5.44 µM
TGI [31]: 19.1 µM
GI50 [32]: 3.7 µM
TGI [32]: 14.3 µM
GI50 [33]: 8.39 µM
TGI [33]: 23.8 µM
GI50 [34]: 8.49 µM
TGI [34]: 21.4 µM
GI50 [35]: 2.72 µM
TGI [35]: 7.9 µM
GI50 [36]: 3.79 µM
TGI [36]: 18.5 µM
GI50 [37]: 6.22 µM
TGI [37]: 18 µM
GI50 [38]: 1.79 µM
TGI [38]: 3.47 µM
GI50 [39]: 11 µM
TGI [39]: 25.5 µM
GI50 [40]: 10.3 µM
TGI [40]: 23.8 µM
GI50 [41]: 5.27 µM
TGI [41]: 20.8 µM
GI50 [42]: 1.87 µM
TGI [42]: 4.39 µM
GI50 [43]: 5.03 µM
TGI [43]: 15.2 µM
GI50 [44]: 4.14 µM
TGI [44]: 15.7 µM
GI50 [45]: 6.47 µM
TGI [45]: 20 µM
GI50 [46]: 4.03 µM
TGI [46]: 14.8 µM
GI50 [47]: 2.44 µM
TGI [47]: 4.91 µM
GI50 [48]: 16.7 µM
TGI [48]: 38.1 µM
GI50 [49]: 3.43 µM
TGI [49]: 10.9 µM
GI50 [50]: 6 µM
TGI [50]: 19.3 µM
GI50 [51]: 3.54 µM
TGI [51]: 8.58 µM
GI50 [52]: 4.46 µM
TGI [52]: 17.8 µM
GI50 [53]: 1.99 µM
TGI [53]: 4.1 µM
GI50 [54]: 8.27 µM
TGI [54]: 22.5 µM
GI50 [55]: 3.38 µM
TGI [55]: 11.1 µM
GI50 [56]: 7.78 µM
TGI [56]: 22.8 µM
GI50 [57]: 8.15 µM
TGI [57]: 20.7 µM
GI50 [58]: 10.7 µM
TGI [58]: 25.3 µM
